Here are results for 29 compounds from ChEMBL document CHEMBL1201862, “PubChem BioAssay data set” (2004).

Test [1] can be described thus: cells. Format: functional, cell-based.
The nature of test [2]: cells. The format is functional, cell-based. This is another data set of the same source.
Test [3] can be described thus: reduction of Shn3 3'UTR-driven luciferase in osteoblasts – cell-based, Clone20 osteoblasts, firefly luciferase, cherry-picked, dose response (AID 624132).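 Also: firefly luciferase luminescence from reporter carrying the Shn3 3'UTR in osteoblasts.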 Format: functional.
Test [4] is described as follows: non-specific 3'UTR reporter inhibition in Clone20-Shn3RL – cell-based, Renilla luciferase, cherry-picked, counter-screen for Shn3 inhibitor project, dose response (AID 624133). The format is functional. A general note: Counterscreens check selectivity or assay interference.
Test [5] concerns the target T1, Heat shock factor protein 1 (Mus musculus, UniProt P38532).
T1 sequence (P38532 whole entry): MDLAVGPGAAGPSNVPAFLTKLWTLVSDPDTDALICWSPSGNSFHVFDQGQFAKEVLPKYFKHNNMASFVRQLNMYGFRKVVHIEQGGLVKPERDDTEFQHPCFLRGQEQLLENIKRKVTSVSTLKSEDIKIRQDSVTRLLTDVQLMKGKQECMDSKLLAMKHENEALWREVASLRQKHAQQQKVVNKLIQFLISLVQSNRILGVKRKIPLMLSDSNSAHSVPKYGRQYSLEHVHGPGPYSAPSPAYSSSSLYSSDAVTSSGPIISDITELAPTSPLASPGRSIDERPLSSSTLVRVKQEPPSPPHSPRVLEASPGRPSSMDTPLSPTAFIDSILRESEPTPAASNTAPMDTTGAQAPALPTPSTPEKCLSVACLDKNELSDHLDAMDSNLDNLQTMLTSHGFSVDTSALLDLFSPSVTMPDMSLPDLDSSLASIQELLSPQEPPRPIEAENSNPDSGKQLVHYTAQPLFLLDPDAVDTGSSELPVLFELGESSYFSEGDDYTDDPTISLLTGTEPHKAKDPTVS
The test is described as follows: enhancement of HSF1-driven luciferase signal – cell-based, NIH3T3, luminescence, dose retest, confirmation (AID 435004).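 Also: stress induced by proteasome inhibitor MG132 added 30 min after compound; luciferase reporter driven by HSF1 response element in NIH3T3 cells; actives raise luminescence as potentiators of the MG132 stress response.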 The format is functional.

Test [6] has as its target T2, Calpain-2 catalytic subunit (Sus scrofa, UniProt P43367).
T2 sequence (P43367 whole entry): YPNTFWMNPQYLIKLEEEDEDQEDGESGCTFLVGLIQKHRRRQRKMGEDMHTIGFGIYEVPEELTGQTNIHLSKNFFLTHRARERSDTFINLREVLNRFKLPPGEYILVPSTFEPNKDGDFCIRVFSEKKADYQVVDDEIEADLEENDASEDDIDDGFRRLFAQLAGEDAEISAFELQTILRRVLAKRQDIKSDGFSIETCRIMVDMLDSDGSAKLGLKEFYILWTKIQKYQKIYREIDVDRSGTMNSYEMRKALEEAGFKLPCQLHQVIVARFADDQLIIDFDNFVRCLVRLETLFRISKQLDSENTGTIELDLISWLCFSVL
The test is described as follows: m-calpain protease blockers, concentration series – biochemical, fluorogenic peptide substrate, dose response (AID 1420). The format is functional.

Test [7] is described as follows: Trypanosoma cruzi growth suppression in host cells – NIH3T3 host cells, beta-gal luminescence, confirmation (AID 2044).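 Also: intracellular parasites grown in NIH/3T3 mouse fibroblasts as host cells; luminescent beta-galactosidase reporter signal from transgenic T. cruzi replicating inside host cells; inhibitors lower the luminescence signal.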 The format is functional, cell-based.
Test [8] in a line: microbe, parasite or virus in culture. Format: functional. Conditions: Mycobacterium tuberculosis.
Test [9] can be described thus: NIH3T3 cell viability loss – ATP luminescence, mouse fibroblasts, counter-screen, dose response (AID 2010).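 Also: cells exposed to compound for about 90 hours before reading.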 The format is functional, cell-based.
For the next test, the target named is T3, Leucine aminopeptidase (Plasmodium falciparum 3D7, UniProt Q8IL11).
T3 sequence (Q8IL11 whole entry): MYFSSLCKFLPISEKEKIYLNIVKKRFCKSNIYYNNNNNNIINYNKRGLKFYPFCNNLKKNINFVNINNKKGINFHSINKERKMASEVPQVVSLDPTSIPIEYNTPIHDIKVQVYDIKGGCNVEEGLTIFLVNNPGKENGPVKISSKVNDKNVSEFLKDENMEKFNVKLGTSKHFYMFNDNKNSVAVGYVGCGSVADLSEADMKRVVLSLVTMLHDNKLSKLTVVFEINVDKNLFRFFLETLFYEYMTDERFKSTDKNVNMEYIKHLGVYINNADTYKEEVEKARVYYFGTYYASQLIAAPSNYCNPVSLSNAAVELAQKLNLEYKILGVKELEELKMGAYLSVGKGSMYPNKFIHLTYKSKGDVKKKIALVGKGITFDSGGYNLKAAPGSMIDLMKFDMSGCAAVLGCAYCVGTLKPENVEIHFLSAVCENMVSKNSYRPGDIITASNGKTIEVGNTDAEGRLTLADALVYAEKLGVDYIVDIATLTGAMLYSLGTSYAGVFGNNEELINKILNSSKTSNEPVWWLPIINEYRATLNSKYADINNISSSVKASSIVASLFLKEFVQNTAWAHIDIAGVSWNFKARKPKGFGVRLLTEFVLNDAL
In words: P. falciparum M17LAP inhibitors, primary screen, biochemical, fluorogenic H-Leu-NHMec substrate, 1536-well (AID 1619). The format is functional.

The target in test [10] is T4, Corticotropin-releasing factor receptor 2/Corticotropin-releasing factor-binding protein (Homo sapiens, UniProt P24387+Q13324).
T4 sequence (Q13324 whole entry): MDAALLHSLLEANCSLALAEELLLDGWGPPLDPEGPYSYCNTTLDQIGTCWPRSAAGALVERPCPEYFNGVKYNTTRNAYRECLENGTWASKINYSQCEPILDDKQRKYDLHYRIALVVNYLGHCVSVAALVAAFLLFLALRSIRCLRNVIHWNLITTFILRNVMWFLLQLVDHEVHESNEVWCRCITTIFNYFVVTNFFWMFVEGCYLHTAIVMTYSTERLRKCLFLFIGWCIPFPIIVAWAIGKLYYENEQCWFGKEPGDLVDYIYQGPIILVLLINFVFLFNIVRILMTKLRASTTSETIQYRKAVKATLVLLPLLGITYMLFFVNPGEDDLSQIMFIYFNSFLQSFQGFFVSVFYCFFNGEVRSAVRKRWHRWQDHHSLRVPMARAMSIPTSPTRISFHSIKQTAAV
T4 sequence (P24387 whole entry): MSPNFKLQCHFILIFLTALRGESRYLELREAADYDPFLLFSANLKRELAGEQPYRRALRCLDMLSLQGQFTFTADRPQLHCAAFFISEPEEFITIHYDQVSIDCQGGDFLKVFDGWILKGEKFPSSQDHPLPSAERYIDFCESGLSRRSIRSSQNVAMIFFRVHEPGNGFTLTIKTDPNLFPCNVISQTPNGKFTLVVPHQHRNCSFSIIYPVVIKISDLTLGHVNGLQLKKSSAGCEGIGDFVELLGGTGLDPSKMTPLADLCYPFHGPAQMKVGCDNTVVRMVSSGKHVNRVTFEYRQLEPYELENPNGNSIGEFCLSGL
The test is described as follows: Dose Response confirmation of uHTS hits for small molecule antagonists of the CRF-binding protein and CRF-R2 receptor complex. The format is functional. Conditions: read-out: IC50_Mean.

Test [11] addresses T4, Corticotropin-releasing factor receptor 2/Corticotropin-releasing factor-binding protein. In words: activators of CRF receptor 2 with binding protein – uHTS hits, confirmation (AID 602473). Format: functional. The conditions noted are these: read-out: EC50_Mean.
The next test concerns the target Cytochrome P450 3A4 (Homo sapiens, UniProt P08684).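 Also: CYP3A4 tested as one member of a cytochrome P450 panel screen.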
Test [12] can be described thus: cells. Format: functional.

Structures are written as SMILES. The source made the active and inactive calls.

Cytochrome P450 3A4, sequence (P08684 whole entry): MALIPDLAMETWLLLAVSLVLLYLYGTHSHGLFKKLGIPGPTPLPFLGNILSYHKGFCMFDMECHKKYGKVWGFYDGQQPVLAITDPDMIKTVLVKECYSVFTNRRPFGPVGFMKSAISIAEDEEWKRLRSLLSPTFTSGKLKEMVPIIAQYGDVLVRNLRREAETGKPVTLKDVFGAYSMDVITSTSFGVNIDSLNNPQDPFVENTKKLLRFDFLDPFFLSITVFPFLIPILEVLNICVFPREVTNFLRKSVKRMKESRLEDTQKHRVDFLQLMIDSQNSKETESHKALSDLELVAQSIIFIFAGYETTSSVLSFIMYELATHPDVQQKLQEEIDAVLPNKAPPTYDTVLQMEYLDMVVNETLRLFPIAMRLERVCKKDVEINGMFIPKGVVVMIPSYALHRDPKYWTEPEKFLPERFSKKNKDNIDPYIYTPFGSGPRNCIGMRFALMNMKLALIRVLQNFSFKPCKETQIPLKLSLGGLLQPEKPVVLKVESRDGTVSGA

Take `CN(C(=O)COC(=O)c1ccc(F)c(S(=O)(=O)N2CCOCC2)c1)C1CCS(=O)(=O)C1` (centres undefined): the EC50 in the test “cells [1]” and in the test “cells [2]” was > 350 µM (not active) each time. With `CCCC(=O)NC(=S)Nc1ccc(N2CCN(C(=O)c3cccs3)CC2)cc1`, the AC50 (usually the concentration giving half of the maximal activity seen) is 10.1 µM (active) in test [3] and 10.7 µM (active) in test [4]. `FC(F)(F)c1ccc2c(c1)NP(=S)(N1CCOCC1)c1nccn1-2` (centres undefined): the EC50 in “cells [1]” and in “cells [2]” was > 350 µM (not active) throughout. On to `S=C(NCc1ccco1)N/N=C/c1ccc(Cl)cc1`, for which, in test [5], the EC50 was > 260 µM (inactive). Also, in test [6], the IC50 is 6.94 µM (not active). `Cc1ccc(OCCCCNC2CCCC(C)C2C)c(C)c1` (centres undefined): the EC50 in test [7] is 0.778 µM (active); in test [9], > 60 µM (not active). Besides, the CC50 in test [8] was > 40 µM (active). As to `CCCn1c(=N)c(C(=O)NCc2ccc3c(c2)OCO3)cc2c(=O)n3cccc(C)c3nc21`, the figures for the EC50 in test [7] and in [9] were 1.67 µM (active) and > 30 µM (not active), respectively. In addition, the CC50 in test [8] is 33.9 µM (active). As for `O=C(NCCc1c[nH]c2ccccc12)OCCSS(=O)(=O)O`, the IC50 at Leucine aminopeptidase is 21.8 µM (active). On to `OC(CN1C2=NCCN2c2ccccc21)c1ccc2c(c1)OCO2` (centres undefined), for which the IC50 in test [10] is > 47.1 µM (inactive). The EC50 in test [11] was > 53 µM (inactive). For `Cc1ccc(S(=O)(=O)NC(=O)CSc2nc3ccccc3s2)cc1`, the AC50 on Cytochrome P450 3A4 is 14.1 µM (inconclusive). The IC50 on Leucine aminopeptidase is 7.77 µM (active). Take `COC(=O)CN1C(=O)COc2ccc(S(=O)(=O)NCc3ccc(Cl)cc3)cc21`: the IC50 in [10] is > 47.1 µM (inactive). Besides, in test [11], the EC50 was > 53 µM (inactive). Turning to `Cn1c(SCC(=O)c2ccccc2)nnc1-c1ccco1`, the EC50 in the test “cells [1]” was > 350 µM (not active); in the test “cells [2]”, 57.5 µM (active). In the case of `COc1ccc(/C=N/NS(=O)(=O)c2ccccc2)cc1OC(=O)c1ccc(C)cc1`, in [10], the IC50 was > 47.1 µM (inactive). Moreover, the EC50 in test [11] is > 53 µM (inactive). For the compound `CSc1ccc(C(=O)C2CCCN(Cc3cc4ccccc4[nH]3)C2)cc1` (centres undefined), the IC50 in the test “cells [12]” is 13.2 µM (active). For the compound `O=C(Nc1ccc(C(=O)O)cc1)Nc1cccc([N+](=O)[O-])c1`, at Leucine aminopeptidase, the IC50 is 16.1 µM (active). With `N#Cc1ccc(COC(=O)CCc2c[nH]c3ccccc23)cc1`, the IC50 in the test “cells [12]” was 1.68 µM (active). Take `Cc1ccc2[nH]c(=O)c(=NNc3ccccc3)cnc2c1`: the CC50 in [8] is > 40 µM (active). Take `C=CCn1c(SCC(=O)c2ccc(NS(=O)(=O)c3ccccc3)cc2)nnc1-c1cccs1`: at Leucine aminopeptidase, the IC50 was 14.7 µM (active).

As to `COc1ccccc1NC(=O)CSc1nc[nH]n1`, on Leucine aminopeptidase, the IC50 is 36.8 µM (active).

Consider `CCCOC(=O)NC1C(NC(=O)OCCC)N(C)C(=O)N1C` (centres undefined), for which the EC50 in the test “cells [1]” and in “cells [2]” was > 350 µM (not active) throughout. For the compound `CCOc1ccc(NC(=O)C2CC(C)=C(C)CC2C(=O)O)cc1` (centres undefined), at Leucine aminopeptidase, the IC50 was 21.3 µM (active).

For the compound `Cc1ccc(NC(=O)CCn2cc(C(F)(F)F)ccc2=O)cc1`, in test [10], the IC50 was > 47.1 µM (inactive). Moreover, the EC50 in test [11] was > 53 µM (inactive). Regarding `O=C(CSc1nc[nH]n1)N1N=C2/C(=C/c3ccco3)CCCC2C1c1ccco1` (centres undefined), the IC50 at Leucine aminopeptidase was 2.11 µM (active). Turning to `CC(=O)c1cccc(NC(=O)CN(C)S(=O)(=O)c2cccc3nsnc23)c1`, the EC50 in the test “cells [1]” and in “cells [2]” was > 350 µM (not active) each time. As for `CC(=O)N1CCN(S(=O)(=O)c2cccc(C(=O)NCc3ccc(F)cc3)c2)CC1`, the IC50 in test [10] was > 47.1 µM (inactive). Also, in test [11], the EC50 is > 53 µM (inactive). For the compound `CCC(=O)n1nc(NCc2ccc(OC)c(OC)c2)nc1NCc1ccc(OC)c(OC)c1`, the EC50 in the test “cells [1]” and in the test “cells [2]” was > 350 µM (not active) each time.

For `COc1ccc(CCNC(=O)c2cccn2C)cc1`, in [10], the IC50 was > 47.1 µM (inactive). Besides, the EC50 in [11] was > 53 µM (inactive). On to `CCN(CC)CCN/C(C)=C1\C(=O)NC(=O)N(c2ccccc2OC)C1=O`, for which the IC50 in test [10] was > 47.1 µM (inactive). Besides, the EC50 in test [11] is > 53 µM (inactive). For the compound `COc1ccc(NC(=O)CN2C(=O)C(C)SC(C)C2=O)cc1` (centres undefined), the IC50 at Leucine aminopeptidase was 12.2 µM (active). Regarding `CC(C)Cn1nc2c3c(ccc2c1O)C(=O)c1ccccc1C3=O`, the CC50 in test [8] was 16.4 µM (active).
